{
  "source": "patent US20220133761A1",
  "about": "“NEUTROPHIL APOPTOSIS INDUCED BY NANOPARTICLES FOR TREATING INFLAMMATORY DISEASES” (WASHINGTON STATE UNIVERSITY, priority 2020, published 2022)",
  "key": {"[1]": {"assay": "In vitro drug release profile (dialysis, 37 C)", "assay_type": "physicochemical", "protocol": "Release profiles of DOX from NPs were studied using dialysis method at 37° C.(33) Briefly, 3 mg of NPs was dispersed in 3 mL (Ve) PBS at different pH, and then was placed in a dialysis bag (MWCO 3500 Da). The dialysis bag was immersed in 47 mL PBS (pH 7.4, 6.5 or 5.0) in a beaker. The beaker was then placed in a 37° C. water bath and stirred at 110 rpm. The samples were drawn at desired time intervals and the drug concentration was measured using UV-Vis absorption. The experiments were carried out in triplicate at each pH value. The accumulative drug release percent (Er) was calculated based on equation (1).\nwhere, mdrug represents the amount of DOX in NPs, V0 was the whole volume of release media (V0=50 mL), Ci represents the concentration of DOX in the ith sample."}, "[2]": {"tested_on": "differentiated HL60 cells", "assay": "Uptake of DOX-hyd-BSA NPs by differentiated HL60 cells", "assay_type": "cell-based, human", "settings": "10^6 cells/mL, 2 h at different DOX concentrations; time course at 30 μg/mL DOX", "protocol": "FIG. 5C and FIG. 5D show resultant uptake data of the present application, wherein DOX-hyd-BSA NPs by differentiated HL60 cells were evaluated in vitro."}, "[3]": {"tested_on": "differentiated HL-60 cells", "assay": "Apoptosis analysis, Annexin V-FITC / 7AAD staining (flow cytometry, CLSM)", "assay_type": "cell-based, human", "protocol": "To investigate the apoptosis of neutrophils induced by DOX, Annexin V-FITC and 7AAD were used to double stain differentiated HL-60 cells. […] The cells were re-suspended in a binding buffer for staining of Annexin V-FITC and 7AAD (emission at 650 nm) according to the manufacturer's protocol (Invitrogen). Stained cells were analyzed using a flow cytometer and imaged by a Nikon A1R^+ confocal laser scanning microscope."}, "LPS-challenged mice [4]": {"tested_on": "LPS-challenged mice", "assay": "Acute lung inflammation mouse model (i.t. LPS), BALF neutrophils and cytokines", "assay_type": "in vivo", "settings": "vs free DOX and DOX-ab-BSA NPs", "protocol": "Mice were anesthetized, and placed in a supine position head up on a board tilted at 15°. Afterwards, 10 mg/kg of LPS in HBSS was intratracheally (i.t.) administrated to mice with a FMJ-250 High Pressure Syringe (Penn-Century, Wyndmoor, Pa.). Mice were held upright for 2 min after administration.\nMice were challenged with i.t. injection of LPS (10 mg/kg). […] At 20 h post-drug administration, the mice were anesthetized with i.v. injection of a mixture of ketamine and xylazine. The BALF was collected by inserting a needle into the upper trachea. 0.9 mL HBSS was infused into the lungs and carefully withdrawn to obtain BALF. This process was repeated three times. BALF was collected and centrifuged at 350 g for 10 min at 4° C. The supernatant was collected for ELISA analysis. Afterwards, the cells were re-suspended in 0.5 ml of HBSS. The total cell number was determined with a hemocytometer.\nFlow cytometry was utilized to quantify neutrophils in BALF. In detail, neutrophils from BALF were washed with 1 mL of 5% BSA in HBSS and centrifuged at 350 g for 10 min at 4° C. for three times, which was finally re-suspended in 400 μL of 5% BSA in HBSS. 3 μL of Alexa Fluor-647-labeled anti-mouse LY-6G antibody was added and incubated for 20 min in the dark, followed by washing with 1 mL of 0.1% BSA in HBSS under centrifugation for three times. Samples were then re-suspended in 400 μL 0.1% BSA in HBSS and filtered by a 100 μm filter, and analyzed by flow cytometer (Accuri C6 flow cytometer, BD Biosciences, San Jose, Calif.).\nBALF was collected and centrifuged at 350 g for 10 min as described above. Supernatants from BALF were harvested for ELISA analysis. Concentrations of TNF-α, IL-6 and IL-1β in supernatants were determined with commercial ELISA kits according to the manufacturer's instructions (Biolegend, San Diego, Calif.). The triplicate experiment was conducted."}, "LPS-challenged mice [5]": {"tested_on": "LPS-challenged mice", "assay": "Therapeutic efficacy in sepsis mouse model (neutrophils, cytokines, MPO in blood, BALF, organs)", "assay_type": "in vivo", "protocol": "Adult CD-1 mice were i.p. administrated with LPS (50 mg/kg). 4 hours later, the mice were grouped randomly (10 mice per group) and i.v. injected with PBS, free DOX and DOX-hyd-BSA NPs (equal to 0.2 mg kg^−1 of free DOX), respectively. The healthy mice were used as […]. At predetermined time points (16 h and 72 h after LPS challenge), mouse BALF, blood and major organs were collected. Cell number and inflammatory factors (TNF-α, IL-6 and IL-1β) in BALF were determined by hemocytometer and ELISA, respectively as aforementioned. Blood was collected as described above. The plasma was harvested for ELISA assay after the blood was centrifuged at 1500 g for 20 min. Cell number was counted as above. The organs were homogenized with PBS (100 mg/mL) to obtain the pipettable homogenate for myeloperoxidase (MPO) activity and ELISA assay."}, "human neutrophils": {"tested_on": "human neutrophils", "assay": "Uptake of nanoparticles by human neutrophils in vitro (flow cytometry)", "assay_type": "cell-based", "settings": "30 ug/ml, 2 h", "protocol": "FIG. 15 show novel data of uptake of DOX-hdy-BSA NPs by human neutrophils. Human neutrophils were incubated with DOX-hyd-BSA NPs (the concentration at 30 ug/ml) for 2 h, and then the cells were washed, and they were analyzed by flowcytometry.\nIt is also to be noted that the methods herein also pertain to making human albumin nanoparticles similar to BSA NPs. […] Human neutrophils were incubated with DOX-hyd-BSA NPs (the concentration at 30 ug/ml) for 2 h, and then the cells were washed and analyzed by flowcytometry."}, "[6]": {"settings": "0.2 mg/kg (DOX) i.v. 4 h after i.t. LPS"}, "[7]": {"settings": "first 16 h after LPS challenge, vs PBS"}},
  "data": [
    {"substance": "DOX-hyd-BSA NPs", "values": [
      {"measurement": "cumulative DOX release", "setting": "[1]; pH 5.0, first 10 h", "value": 80, "unit": "%"},
      {"measurement": "cumulative DOX release", "setting": "[1]; pH 5, in 30 h", "value": "completely released DOX"},
      {"measurement": "cumulative DOX release", "setting": "[1]; pH 6.5, first 10 h", "value": 60, "unit": "%"},
      {"measurement": "DOX uptake by cells", "setting": "[2]", "value": "taken up efficiently"},
      {"measurement": "apoptotic cells by flow cytometry", "setting": "[3]; 24 h, DOX 3 μg/mL", "value": 89, "unit": "%"},
      {"measurement": "Annexin V-FITC / 7AAD staining by confocal microscopy", "setting": "[3]; 24 h treatment", "value": "contained staining of Annexin-V-FITC, and less staining of 7AAD"},
      {"measurement": "neutrophils in BALF", "setting": "LPS-challenged mice [4]; 0.2 mg/kg (DOX) i.v. 4 h after i.t. LPS 10 mg/kg", "value": "surprisingly and dramatically shown to decrease compared to controls"},
      {"measurement": "IL-1β in BALF", "setting": "LPS-challenged mice [4]; [6]", "value": "decreased"},
      {"measurement": "IL-6 in BALF", "setting": "LPS-challenged mice [4]; [6]", "value": "decreased"},
      {"measurement": "TNF-α in BALF", "setting": "LPS-challenged mice [4]; [6]", "value": "decreased"},
      {"measurement": "inflammation in other organs (MPO, TNF-α, IL-6, IL-1β)", "setting": "LPS-challenged mice [5]; 16 h and 72 h post-LPS challenge, vs PBS", "value": "significantly decreased inflammation in other organs"},
      {"measurement": "neutrophil number and cytokine contents", "setting": "LPS-challenged mice [5]; 72 h after LPS challenge", "value": "resumed to their levels as in healthy mice"},
      {"measurement": "cytokines in blood and lung BALF", "setting": "LPS-challenged mice [5]; [7]", "value": "decreased accordingly"},
      {"measurement": "neutrophils in blood and lung BALF", "setting": "LPS-challenged mice [5]; [7]", "value": "dramatically decreased"},
      {"measurement": "neutrophil production in the bone marrow", "setting": "LPS-challenged mice [5]; neutrophil counts compared with healthy mice", "value": "did not impair neutrophil production in the bone marrow"},
      {"measurement": "uptake by human neutrophils", "setting": "human neutrophils", "value": "can be efficiently taken up"}
    ]}
  ]
}
